In PMC8523698, “Preclinical characterization of an intravenous coronavirus 3CL protease inhibitor for the potential treatment of COVID19” (Nature Communications, 2021):
“And” between values parts separate entries of the source, which are not always exact repeats. Equal values may be shown once.

How the values were obtained:
Human Cathepsin D = Human Cathepsin D (Homo sapiens, UniProt P07339); experiment: Mammalian protease panel; format: biochemical
OC43-CoV 3CL^pro = OC43-CoV 3CL^pro (Human coronavirus OC43, UniProt P0C6X6); format: biochemical
[1] = Monkey pharmacokinetic study; conditions: for AUC(0-inf): AUCinf; for Vd: Vdss; for AUC(0-t): po, AUCt; for Total Concn in plasma: 1mg/kg IV PF-00835231 dosed (crossover), individual animals and mean
[2] = male, Cynomolgus, cynomolgus monkey, plasma, iv, 1 mg/kg, Mean, monkey, PF-00835231 active dosed 1mg/kg intravenous (crossover)
[3] = male, Cynomolgus, cynomolgus monkey, plasma, iv, 1 mg/kg, monkey, PF-00835231 active dosed 1mg/kg intravenous (crossover), individual monkeys
[4] = monkey, PF-00835231 active dosed 1mg/kg intravenous (crossover), individual monkeys, 1 mg/kg

Human Cathepsin D, sequence (P07339 65-412): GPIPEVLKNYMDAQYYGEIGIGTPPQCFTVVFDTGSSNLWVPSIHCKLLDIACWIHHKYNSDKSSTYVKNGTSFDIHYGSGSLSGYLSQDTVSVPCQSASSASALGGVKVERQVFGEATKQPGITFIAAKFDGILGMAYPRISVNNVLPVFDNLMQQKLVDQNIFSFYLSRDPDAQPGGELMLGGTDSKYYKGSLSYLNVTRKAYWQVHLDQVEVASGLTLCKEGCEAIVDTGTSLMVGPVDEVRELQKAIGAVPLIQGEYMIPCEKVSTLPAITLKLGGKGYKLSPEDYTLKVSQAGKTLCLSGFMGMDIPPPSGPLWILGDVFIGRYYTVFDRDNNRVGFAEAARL
OC43-CoV 3CL^pro, sequence (P0C6X6 3247-3549): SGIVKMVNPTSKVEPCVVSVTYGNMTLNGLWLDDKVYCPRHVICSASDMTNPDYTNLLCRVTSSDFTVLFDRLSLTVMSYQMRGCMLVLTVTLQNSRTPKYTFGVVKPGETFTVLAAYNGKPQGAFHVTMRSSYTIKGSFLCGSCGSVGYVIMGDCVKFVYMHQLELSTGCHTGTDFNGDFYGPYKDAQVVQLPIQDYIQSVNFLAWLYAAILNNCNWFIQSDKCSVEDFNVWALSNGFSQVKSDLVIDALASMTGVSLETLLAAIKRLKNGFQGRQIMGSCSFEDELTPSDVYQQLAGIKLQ

## COc1cccc2[nH]c(C(=O)N[C@@H](CC(C)C)C(=O)N[C@@H](C[C@@H]3CCNC3=O)C(=O)CO)cc12 [PF-00835231]
Human Cathepsin D
  IC50: > 11000 nM
OC43-CoV 3CL^pro
  Ki: 0.51 ± 0.12 nM
[1]; Monkey, 1mg/kg intravenous, Time 0.083
  Total Concn, Mean: 1225 ng/mL
[1]; Monkey, 1mg/kg intravenous, Time 0.083, individual animals
  Total Concn: 1220 ng/mL
[1]; Monkey, 1mg/kg intravenous, Time 0.083, individual animals, 1 mg/kg
  Total Concn: 1230 ng/mL
[1]; Monkey, 1mg/kg intravenous, Time 0.25
  Total Concn, Mean: 365 ng/mL
[1]; Monkey, 1mg/kg intravenous, Time 0.25, individual animals
  Total Concn: 288 ng/mL
[1]; Monkey, 1mg/kg intravenous, Time 0.25, individual animals, 1 mg/kg
  Total Concn: 442 ng/mL
[1]; Monkey, 1mg/kg intravenous, Time 0.5
  Total Concn, Mean: 183 ng/mL
[1]; Monkey, 1mg/kg intravenous, Time 0.5, individual animals
  Total Concn: 154 ng/mL
[1]; Monkey, 1mg/kg intravenous, Time 0.5, individual animals, 1 mg/kg
  Total Concn: 212 ng/mL
[1]; Monkey, 1mg/kg intravenous, Time 1
  Total Concn, Mean: 107 ng/mL
[1]; Monkey, 1mg/kg intravenous, Time 1, individual animals, 1 mg/kg
  Total Concn: 89.9 ng/mL and 124 ng/mL
[1]; Monkey, 1mg/kg intravenous, Time 2
  Total Concn, Mean: 46 ng/mL
[1]; Monkey, 1mg/kg intravenous, Time 2, individual animals, 1 mg/kg
  Total Concn: 45.5 ng/mL and 47 ng/mL
[1]; Monkey, 1mg/kg intravenous, Time 4
  Total Concn, Mean: 13 ng/mL
[1]; Monkey, 1mg/kg intravenous, Time 4, individual animals, 1 mg/kg
  Total Concn: 12.2 ng/mL and 14 ng/mL
[1]; Monkey, 1mg/kg intravenous, Time 7
  Total Concn, Mean: 2.6 ng/mL
[1]; Monkey, 1mg/kg intravenous, Time 7, individual animals, 1 mg/kg
  Total Concn: 2.87 ng/mL and 2.25 ng/mL
[1]; Monkey, 1mg/kg intravenous, individual animals, 1 mg/kg
  Vdss: 1.51 L/kg
[1]; [2]
  AUC(0-inf): 583 ng·h/mL
  Vd: 1.43 L/kg
[1]; [3]
  AUC(0-inf): 614 ng·h/mL
  Vd: 1.34 L/kg
[1]; male, Cynomolgus, cynomolgus monkey, plasma, iv, 1 mg/kg, Clearance, Mean, monkey, PF-00835231 active dosed 1mg/kg intravenous (crossover)
  clearance: 28.7 mL/min/kg
[1]; male, Cynomolgus, cynomolgus monkey, plasma, iv, 1 mg/kg, Clearance, monkey, PF-00835231 active dosed 1mg/kg intravenous (crossover), individual monkeys
  clearance: 27.1 mL/min/kg
[1]; male, Cynomolgus, cynomolgus monkey, plasma, iv, 1 mg/kg, Half life, Mean, monkey, PF-00835231 active dosed 1mg/kg intravenous (crossover)
  half-life: 0.92 h
[1]; male, Cynomolgus, cynomolgus monkey, plasma, iv, 1 mg/kg, Half life, monkey, PF-00835231 active dosed 1mg/kg intravenous (crossover), individual monkeys
  half-life: 1.14 h
[1]; male, cynomolgus monkey, plasma, iv, 1 mg/kg, Terminal T1/2, monkey IV (n=2, range), PF-07304814 […], PF-00835231 1.0mg/kg
  half-life: < 2 h
[1]; male, cynomolgus monkey, plasma, iv, 1 mg/kg, Mean, Monkey, 1mg/kg intravenous
  Vd: 1.43 L/kg
[1]; male, cynomolgus monkey, plasma, iv, 1 mg/kg, Monkey, 1mg/kg intravenous, individual animals
  Vd: 1.34 L/kg
[1]; male, cynomolgus monkey, plasma, iv, 1 mg/kg, Monkey, Vdss input
  Vd: 1.4 L/kg
[1]; male, cynomolgus monkey, plasma, iv, 1 mg/kg, monkey IV (n=2, range), PF-07304814 […], PF-00835231 1.0mg/kg
  Vd: < 1.5 L/kg
[1]; male, cynomolgus monkey, plasma, iv, Cl, monkey IV (n=2, range), PF-07304814 […], PF-00835231 1.0mg/kg
  clearance: 28.7 mL/min/kg
[1]; male, cynomolgus monkey, plasma, iv, Terminal T1/2, monkey IV (n=2, range), PF-07304814 […], PF-00835231 1.0mg/kg
  half-life: 1.2 h
[1]; male, cynomolgus monkey, plasma, iv, monkey IV (n=2, range), PF-07304814 […], PF-00835231 1.0mg/kg
  Vd: 1.4 L/kg
[1]; male, cynomolgus monkey, plasma, 5 mg/kg, Mean, monkey, PF-00835231 5mg/kg PO dose
  AUC(0-t): 0.466 ng·h/mL
[1]; male, cynomolgus monkey, plasma, 5 mg/kg, monkey, PF-00835231 5mg/kg PO dose, individual monkeys
  AUC(0-t): 0.328 ng·h/mL
[1]; monkey plasma, PF-00835231 active dosed 1mg/kg intravenous (crossover), time 0.5 h, individual monkeys, 1 mg/kg
  Total Concn: 212 ng/mL
[1]; monkey plasma, PF-00835231 active dosed 1mg/kg intravenous (crossover), time 1 h, individual monkeys, 1 mg/kg
  Total Concn: 124 ng/mL
[1]; monkey plasma, PF-00835231 active dosed 1mg/kg intravenous (crossover), time 2 h, individual monkeys, 1 mg/kg
  Total Concn: 47 ng/mL
[1]; monkey plasma, PF-00835231 active dosed 1mg/kg intravenous (crossover), time 4 h, individual monkeys, 1 mg/kg
  Total Concn: 14 ng/mL
[1]; monkey plasma, PF-00835231 active dosed 1mg/kg intravenous (crossover), time 7 h, individual monkeys, 1 mg/kg
  Total Concn: 2.25 ng/mL
[1]; monkey urine 0-7h, PF-00835231 active dosed 1mg/kg intravenous (crossover), individual monkeys, 1 mg/kg
  Urine Concn: 260 ng/mL and 304 ng/mL
[1]; monkey urine 7-24h, PF-00835231 active dosed 1mg/kg intravenous (crossover), individual monkeys, 1 mg/kg
  Urine Concn: 6.76 ng/mL and 33.1 ng/mL
[1]; monkey, Time 0.083, 1 mg/kg
  Total Concn in plasma: 1220 ng/mL and 1225 ng/mL
[1]; monkey, Time 0.25, 1 mg/kg
  Total Concn in plasma: 442 ng/mL and 365 ng/mL
[1]; monkey, Time 0.5, 1 mg/kg
  Total Concn in plasma: 212 ng/mL and 183 ng/mL
[1]; monkey, Time 1, 1 mg/kg
  Total Concn in plasma: 124 ng/mL and 107 ng/mL
[1]; monkey, Time 2, 1 mg/kg
  Total Concn in plasma: 47 ng/mL and 46 ng/mL
[1]; monkey, Time 4, 1 mg/kg
  Total Concn in plasma: 14 ng/mL and 13 ng/mL
[1]; monkey, Time 7, 1 mg/kg
  Total Concn in plasma: 2.87 ng/mL and 2.25 ng/mL and 2.6 ng/mL
[1]; monkey, PF-00835231 5mg/kg PO dose, individual monkeys, 5 mg/kg
  AUCt: 0.603 ng·h/mL
[1]; [4]
  AUCinf: 552 ng·h/mL
  Half life: 1.27 h
  Vdss: 1.51 L/kg
  clearance: 30.2 mL/min/kg
